Active and inactive are the calls of the source. How the calls were made is not given here.
System: CCRIS mutagenicity, Ames/micronucleus/aberration tests
Experiment: CCRIS mutagenicity studies

Measured: mutagenic call

N#CC(Br)Br
inactive: End Point: In vivo micronucleus, Test System: Peripheral blood normochromatic erythrocytes, Species: Mouse, Strain/Sex: B6C3F1/ Female, Route: Oral inactive; negative | End Point: In vivo micronucleus, Test System: Peripheral blood normochromatic erythrocytes, Species: Mouse, Strain/Sex: B6C3F1/ Male, Route: Oral inactive; negative | Test System: AMES SALMONELLA TYPHIMURIUM, Strain/Indicator: TA98, Metabolic Activation: NONE, Method: STANDARD PLATE inactive; negative | Test System: AMES SALMONELLA TYPHIMURIUM, Strain/Indicator: TA98, Metabolic Activation: RAT, LIVER, S-9, AROCLOR 1254, Method: STANDARD PLATE inactive; negative | Test System: AMES SALMONELLA TYPHIMURIUM, Strain/Indicator: TA100, Metabolic Activation: NONE, Method: FLUCTUATION TEST inactive; negative | Test System: AMES SALMONELLA TYPHIMURIUM, Strain/Indicator: TA100, Metabolic Activation: NONE, Method: STANDARD PLATE inactive; negative | Test System: AMES SALMONELLA TYPHIMURIUM, Strain/Indicator: TA100, Metabolic Activation: RAT, LIVER, S-9, AROCLOR 1254, Method: FLUCTUATION TEST inactive; negative | Test System: AMES SALMONELLA TYPHIMURIUM, Strain/Indicator: TA100, Metabolic Activation: RAT, LIVER, S-9, AROCLOR 1254, Method: STANDARD PLATE inactive; negative | Test System: AMES SALMONELLA TYPHIMURIUM, Strain/Indicator: TA1535, Metabolic Activation: NONE, Method: STANDARD PLATE inactive; negative | Test System: AMES SALMONELLA TYPHIMURIUM, Strain/Indicator: TA1535, Metabolic Activation: RAT, LIVER, S-9, AROCLOR 1254, Method: STANDARD PLATE inactive; negative | Test System: Ames Salmonella typhimurium, Strain/Indicator: TA97, Metabolic Activation: Hamster, Liver, S-9, Aroclor 1254 (30%), Method: Preincubation inactive; negative | Test System: Ames Salmonella typhimurium, Strain/Indicator: TA97, Metabolic Activation: Rat, Liver, S-9, Aroclor 1254 (30%), Method: Preincubation inactive; negative | Test System: Ames Salmonella typhimurium, Strain/Indicator: TA98, Metabolic Activation: Hamster, Liver, S-9, Aroclor 1254 (10%), Method: Preincubation inactive; negative | Test System: Ames Salmonella typhimurium, Strain/Indicator: TA98, Metabolic Activation: Hamster, Liver, S-9, Aroclor 1254 (10 and 30%), Method: Preincubation inactive; negative | Test System: Ames Salmonella typhimurium, Strain/Indicator: TA98, Metabolic Activation: None, Method: Preincubation inactive; negative | Test System: Ames Salmonella typhimurium, Strain/Indicator: TA98, Metabolic Activation: Rat, Liver, S-9, Aroclor 1254 (10%), Method: Preincubation inactive; negative | Test System: Ames Salmonella typhimurium, Strain/Indicator: TA98, Metabolic Activation: Rat, Liver, S-9, Aroclor 1254 (10 and 30%), Method: Preincubation inactive; negative | Test System: Ames Salmonella typhimurium, Strain/Indicator: TA100, Metabolic Activation: Hamster, Liver, S-9, Aroclor 1254 (30%), Method: Preincubation inactive; negative | Test System: Ames Salmonella typhimurium, Strain/Indicator: TA100, Metabolic Activation: Rat, Liver, S-9, Aroclor 1254 (10%), Method: Preincubation inactive; negative | Test System: Ames Salmonella typhimurium, Strain/Indicator: TA1535, Metabolic Activation: None, Method: Preincubation inactive; negative | Test System: Ames Salmonella typhimurium, Strain/Indicator: TA1535, Metabolic Activation: Rat, Liver, S-9, Aroclor 1254 (30%), Method: Preincubation inactive; negative | Test System: Ames Salmonella typhimurium, Strain/Indicator: TA1537, Metabolic Activation: Hamster, Liver, S-9, Aroclor 1254 (30%), Method: Preincubation inactive; negative | Test System: Ames Salmonella typhimurium, Strain/Indicator: TA1537, Metabolic Activation: None, Method: Preincubation inactive; negative | Test System: Ames Salmonella typhimurium, Strain/Indicator: TA1537, Metabolic Activation: Rat, Liver, S-9, Aroclor 1254 (10%), Method: Preincubation inactive; negative | Test System: Ames Salmonella typhimurium, Strain/Indicator: TA1538, Metabolic Activation: None, Method: Preincubation inactive; negative | Test System: E. coli, Strain/Indicator: WPM uvrA/pKM101, Metabolic Activation: None, Method: Preincubation inactive; negative | Test System: E. coli, Strain/Indicator: WPM uvrA/pKM101, Metabolic Activation: Rat, Liver, S-9, Aroclor 1254 (10%), Method: Preincubation inactive; negative
active: Test System: Ames Salmonella typhimurium, Strain/Indicator: TA97, Metabolic Activation: Hamster, Liver, S-9, Aroclor 1254 (10%), Method: Preincubation active; positive | Test System: Ames Salmonella typhimurium, Strain/Indicator: TA97, Metabolic Activation: None, Method: Preincubation active; positive | Test System: Ames Salmonella typhimurium, Strain/Indicator: TA97, Metabolic Activation: Rat, Liver, S-9, Aroclor 1254 (10%), Method: Preincubation active; positive | Test System: E. coli, Strain/Indicator: WPM uvrA/pKM101, Metabolic Activation: Hamster, Liver, S-9, Aroclor 1254 (10%), Method: Preincubation active; positive

From PubChem BioAssay AID1259407 (Chemical Carcinogenesis Research Information System (CCRIS), 2018)
